Tested on: shock induced in lab rodents
Test: Survival of lab rodents after induced shock, treated with digestive enzyme inhibitor
Type: in vivo, rodent
Excerpt: The present invention is based on the latest research using rodent models of human hemorrhagic shock. Here it has been discovered that the sudden lowering of blood pressure that occurs in people suffering from […] can provoke the body's digestive enzymes to break down the body's own intestinal and other tissues as if it were food. Such enzymes' abnormal actions may be defined as “auto-digestion.” Auto-digestion is dangerous because not only does it injure healthy tissue but also contributes to multi-organ failure, which can be fatal.
The healthy cells of the animals' intestinal tissue react to auto-digestion by releasing a slew of substances that can be toxic to the heart and other body organs. These substances, termed cytotoxic mediators, can reach these body organs via the blood stream. In recent studies, shock was induced in 19 lab rodents, all of which were then treated with therapies that mirror the emergency room care given to many human patients who suffer shock, which typically occurs when blood flow to the heart, lungs and other body organs is slowed as a result of trauma, dehydration, heart attack, stroke or radiation.
A total of 10 of the 19 lab rodents in shock were also treated with the experimental digestive enzyme inhibitor called ANGD. […] However, only one of the nine “untreated” animals in shock survived. […]

## CS(=O)(=O)O.CS(=O)(=O)O.N=C(N)Nc1ccc(C(=O)Oc2ccc3cc(C(=N)N)ccc3c2)cc1 [ANGD]
10 of 19 lab rodents in shock treated with ANGD plus basic shock care, one of nine untreated survived
  animals surviving: Eight of the ten survived
Lab animals in which shock had been induced
  survival rate: dramatically improved the survival rate
